Calls of active or inactive are those of the source. The calls are words filed in the database; no cut-off is given here.
Legend:
[1] = target: Tyrosine-protein kinase ITK/TSK (Homo sapiens) (UniProt Q08881); experiment: Inhibition of human ITK assessed as residual activity at 1 uM using MBP as substrate by [gamma-33P]-ATP assay relative to control
[2] = target: Inhibitor of nuclear factor kappa-B kinase subunit alpha (Homo sapiens) (UniProt O15111); experiment: Inhibition of human IKKalpha assessed as residual activity at 1 uM using KKKKERLLDDRHDSGLDSMKDEE as substrate by [gamma-33P]-ATP assay relative to control
[3] = target: Aurora kinase B (Homo sapiens) (UniProt Q96GD4); experiment: Inhibition of human Aurora B assessed as residual activity at 1 uM using [H-LRRASLG] as substrate by [gamma-33P]-ATP assay relative to control
[4] = target: Dual serine/threonine and tyrosine protein kinase (Homo sapiens) (UniProt Q6XUX3); experiment: Inhibition of human RIPK5 assessed as residual activity at 1 uM using MBP as substrate by [gamma-33P]-ATP assay relative to control
[5] = target: Cyclin-dependent kinase 2/cyclin E1 (Homo sapiens) (UniProt P24864+P24941); experiment: Inhibition of human CDK2/cyclin-E assessed as residual activity at 1 uM using histone H1 as substrate by [gamma-33P]-ATP assay relative to control; assay type: protein-complex assay
TGF-beta receptor type-2 = TGF-beta receptor type-2 (Homo sapiens, UniProt P37173); experiment: Inhibition of human TGFBR2 assessed as residual activity at 1 uM using MBP as substrate by [gamma-33P]-ATP assay relative to control
[6] = target: Kinase suppressor of Ras 2 (Homo sapiens) (UniProt Q6VAB6); experiment: Inhibition of human KSR2 assessed as residual activity at 1 uM using KRREILSRRPSYR as substrate by [gamma-33P]-ATP assay relative to control
[7] = target: T1, Serine/threonine-protein kinase Chk1 (Homo sapiens) (UniProt O14757); experiment: Inhibition of hydroxyurea-induced CHK1 phosphorylation at S317 residue in human HCT116 cells at 20 uM treated for 8 hrs starting from 24 hrs post hydroxyurea addition by Western blot analysis; assay type: cell-based
T1 sequence (whole entry): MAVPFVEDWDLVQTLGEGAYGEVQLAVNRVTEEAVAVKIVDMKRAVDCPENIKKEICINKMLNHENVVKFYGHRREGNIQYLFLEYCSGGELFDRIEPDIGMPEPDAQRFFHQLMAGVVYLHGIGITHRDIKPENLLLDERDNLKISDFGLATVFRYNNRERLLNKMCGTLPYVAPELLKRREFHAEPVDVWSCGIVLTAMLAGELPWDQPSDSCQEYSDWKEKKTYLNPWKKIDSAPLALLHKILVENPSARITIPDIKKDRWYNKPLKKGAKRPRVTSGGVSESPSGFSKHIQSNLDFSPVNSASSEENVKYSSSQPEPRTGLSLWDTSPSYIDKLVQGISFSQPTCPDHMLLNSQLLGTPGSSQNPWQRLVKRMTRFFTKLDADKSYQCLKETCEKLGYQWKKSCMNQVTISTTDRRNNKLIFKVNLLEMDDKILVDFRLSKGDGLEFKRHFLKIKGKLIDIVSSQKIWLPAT

[8] = target: Tyrosine-protein kinase ABL2 (Homo sapiens) (UniProt P42684); experiment: Inhibition of human ABL2 assessed as residual activity at 1 uM using EAIYAAPFAKKK as substrate by [gamma-33P]-ATP assay relative to control
[9] = target: MAP kinase-interacting serine/threonine-protein kinase 1 (Homo sapiens) (UniProt Q9BUB5); experiment: Inhibition of human MNK1 assessed as residual activity at 1 uM using MBP as substrate by [gamma-33P]-ATP assay relative to control
[10] = target: Serine/threonine-protein kinase 24 (Homo sapiens) (UniProt Q9Y6E0); experiment: Inhibition of human MST3 assessed as residual activity at 1 uM using MBP as substrate by [gamma-33P]-ATP assay relative to control
[11] = target: Focal adhesion kinase 1 (Homo sapiens) (UniProt Q05397); experiment: Inhibition of human FAK assessed as residual activity at 1 uM using poly[Glu:Tyr] (4:1) as substrate by [gamma-33P]-ATP assay relative to control
[12] = target: Maternal embryonic leucine zipper kinase (Homo sapiens) (UniProt Q14680); experiment: Inhibition of human MELK assessed as residual activity at 1 uM using KKLNRTLSFAEPG as substrate by [gamma-33P]-ATP assay relative to control
[13] = target: Tyrosine-protein kinase HCK (Homo sapiens) (UniProt P08631); experiment: Inhibition of human HCK assessed as residual activity at 1 uM using KVEKIGEGTYGVVYK as substrate by [gamma-33P]-ATP assay relative to control
[14] = target: STE20/SPS1-related proline-alanine-rich protein kinase (Homo sapiens) (UniProt Q9UEW8); experiment: Inhibition of human STK39 assessed as residual activity at 1 uM using MBP as substrate by [gamma-33P]-ATP assay relative to control
[15] = target: Serine/threonine-protein kinase PLK2 (Homo sapiens) (UniProt Q9NYY3); experiment: Inhibition of human PLK2 assessed as residual activity at 1 uM using casein as substrate by [gamma-33P]-ATP assay relative to control
[16] = target: Tyrosine-protein kinase Blk (Homo sapiens) (UniProt P51451); experiment: Inhibition of human BLK assessed as residual activity at 1 uM using poly[Glu:Tyr](4:1) as substrate by [gamma-33P]-ATP assay relative to control
[17] = target: Serine/threonine-protein kinase 16 (Homo sapiens) (UniProt O75716); experiment: Inhibition of human STK16 assessed as residual activity at 1 uM using MBP as substrate by [gamma-33P]-ATP assay relative to control
[18] = target: Serine/threonine-protein kinase ICK (Homo sapiens) (UniProt Q9UPZ9); experiment: Inhibition of human LCK2 assessed as residual activity at 1 uM using MBP as substrate by [gamma-33P]-ATP assay relative to control
[19] = target: Serine/threonine-protein kinase D3 (Homo sapiens) (UniProt O94806); experiment: Inhibition of human PKCnu assessed as residual activity at 1 uM using KKLNRTLSVA as substrate by [gamma-33P]-ATP assay relative to control
[20] = target: Inactive tyrosine-protein kinase PEAK1 (Homo sapiens) (UniProt Q9H792); experiment: Inhibition of human PEAK1 assessed as residual activity at 1 uM using MBP as substrate by [gamma-33P]-ATP assay relative to control
[21] = target: Phosphorylase b kinase gamma catalytic chain, liver/testis isoform (Homo sapiens) (UniProt P15735); experiment: Inhibition of human PHKgamma2 assessed as residual activity at 1 uM using MBP as substrate by [gamma-33P]-ATP assay relative to control
[22] = target: CDK1/Cyclin E (Homo sapiens) (UniProt P06493+P24864); experiment: Inhibition of human CDK1/cyclinE assessed as residual activity at 1 uM using RB protein as substrate by [gamma-33P]-ATP assay relative to control; assay type: protein-complex assay
Chain of CDK1/Cyclin E (Homo sapiens) (P06493 whole entry, looked up): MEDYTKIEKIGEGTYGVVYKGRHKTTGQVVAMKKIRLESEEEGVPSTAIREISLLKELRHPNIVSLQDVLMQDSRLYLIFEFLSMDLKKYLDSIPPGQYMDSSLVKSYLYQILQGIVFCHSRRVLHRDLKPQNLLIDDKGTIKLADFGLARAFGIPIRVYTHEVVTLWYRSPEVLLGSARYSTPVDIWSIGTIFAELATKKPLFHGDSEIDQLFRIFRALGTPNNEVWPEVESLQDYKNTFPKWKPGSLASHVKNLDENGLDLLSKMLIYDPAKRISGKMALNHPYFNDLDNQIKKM
Chain of CDK1/Cyclin E (Homo sapiens) (P24864 whole entry, looked up): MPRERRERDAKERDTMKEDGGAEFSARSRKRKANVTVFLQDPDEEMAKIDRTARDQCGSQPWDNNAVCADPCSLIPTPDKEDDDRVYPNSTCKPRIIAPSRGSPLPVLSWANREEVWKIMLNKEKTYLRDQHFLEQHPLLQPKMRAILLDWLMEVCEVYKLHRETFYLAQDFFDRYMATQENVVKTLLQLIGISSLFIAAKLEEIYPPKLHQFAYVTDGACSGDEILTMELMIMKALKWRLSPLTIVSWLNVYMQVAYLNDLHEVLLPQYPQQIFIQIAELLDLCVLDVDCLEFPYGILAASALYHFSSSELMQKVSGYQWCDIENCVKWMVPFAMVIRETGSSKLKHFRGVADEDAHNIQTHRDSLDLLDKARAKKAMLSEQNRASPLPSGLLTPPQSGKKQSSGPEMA

Chain of Phosphorylase b kinase gamma catalytic chain, liver/testis isoform (Homo sapiens) (P15735 whole entry, canonical isoform): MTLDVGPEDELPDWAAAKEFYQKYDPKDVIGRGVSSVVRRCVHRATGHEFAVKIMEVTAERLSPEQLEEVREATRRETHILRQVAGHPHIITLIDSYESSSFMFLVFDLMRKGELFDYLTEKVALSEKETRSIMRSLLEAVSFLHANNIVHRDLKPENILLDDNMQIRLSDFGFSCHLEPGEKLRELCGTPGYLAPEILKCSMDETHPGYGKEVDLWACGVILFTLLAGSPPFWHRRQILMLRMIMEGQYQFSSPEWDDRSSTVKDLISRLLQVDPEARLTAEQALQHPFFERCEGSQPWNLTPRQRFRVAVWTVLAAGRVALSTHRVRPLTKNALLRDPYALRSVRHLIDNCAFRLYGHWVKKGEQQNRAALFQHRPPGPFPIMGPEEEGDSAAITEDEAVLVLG
Chain of Tyrosine-protein kinase Blk (Homo sapiens) (P51451 2-505 limits assumed): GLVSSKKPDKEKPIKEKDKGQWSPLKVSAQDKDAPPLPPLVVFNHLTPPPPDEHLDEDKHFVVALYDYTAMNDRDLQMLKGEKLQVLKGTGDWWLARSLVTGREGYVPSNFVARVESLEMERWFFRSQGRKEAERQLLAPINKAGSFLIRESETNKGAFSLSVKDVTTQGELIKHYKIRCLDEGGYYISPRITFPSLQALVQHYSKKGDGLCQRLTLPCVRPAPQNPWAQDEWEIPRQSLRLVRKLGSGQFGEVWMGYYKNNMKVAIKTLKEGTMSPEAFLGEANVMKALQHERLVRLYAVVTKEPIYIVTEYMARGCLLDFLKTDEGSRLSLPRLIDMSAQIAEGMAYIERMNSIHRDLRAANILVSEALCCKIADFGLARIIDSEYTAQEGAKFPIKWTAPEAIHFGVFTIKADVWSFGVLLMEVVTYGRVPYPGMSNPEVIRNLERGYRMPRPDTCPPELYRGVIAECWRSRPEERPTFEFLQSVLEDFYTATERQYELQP
Chain of Aurora kinase B (Homo sapiens) (Q96GD4 whole entry): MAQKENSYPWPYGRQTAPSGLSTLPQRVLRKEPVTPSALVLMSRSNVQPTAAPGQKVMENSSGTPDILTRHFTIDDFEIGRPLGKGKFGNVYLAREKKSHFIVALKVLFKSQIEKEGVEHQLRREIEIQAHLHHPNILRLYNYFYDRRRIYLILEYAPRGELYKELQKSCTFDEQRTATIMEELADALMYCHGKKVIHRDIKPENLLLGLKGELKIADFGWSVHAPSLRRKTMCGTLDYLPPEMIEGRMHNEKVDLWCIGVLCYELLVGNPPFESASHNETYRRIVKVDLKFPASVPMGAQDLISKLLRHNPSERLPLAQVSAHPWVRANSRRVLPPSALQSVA
Chain of Inactive tyrosine-protein kinase PEAK1 (Homo sapiens) (Q9H792 whole entry, canonical isoform): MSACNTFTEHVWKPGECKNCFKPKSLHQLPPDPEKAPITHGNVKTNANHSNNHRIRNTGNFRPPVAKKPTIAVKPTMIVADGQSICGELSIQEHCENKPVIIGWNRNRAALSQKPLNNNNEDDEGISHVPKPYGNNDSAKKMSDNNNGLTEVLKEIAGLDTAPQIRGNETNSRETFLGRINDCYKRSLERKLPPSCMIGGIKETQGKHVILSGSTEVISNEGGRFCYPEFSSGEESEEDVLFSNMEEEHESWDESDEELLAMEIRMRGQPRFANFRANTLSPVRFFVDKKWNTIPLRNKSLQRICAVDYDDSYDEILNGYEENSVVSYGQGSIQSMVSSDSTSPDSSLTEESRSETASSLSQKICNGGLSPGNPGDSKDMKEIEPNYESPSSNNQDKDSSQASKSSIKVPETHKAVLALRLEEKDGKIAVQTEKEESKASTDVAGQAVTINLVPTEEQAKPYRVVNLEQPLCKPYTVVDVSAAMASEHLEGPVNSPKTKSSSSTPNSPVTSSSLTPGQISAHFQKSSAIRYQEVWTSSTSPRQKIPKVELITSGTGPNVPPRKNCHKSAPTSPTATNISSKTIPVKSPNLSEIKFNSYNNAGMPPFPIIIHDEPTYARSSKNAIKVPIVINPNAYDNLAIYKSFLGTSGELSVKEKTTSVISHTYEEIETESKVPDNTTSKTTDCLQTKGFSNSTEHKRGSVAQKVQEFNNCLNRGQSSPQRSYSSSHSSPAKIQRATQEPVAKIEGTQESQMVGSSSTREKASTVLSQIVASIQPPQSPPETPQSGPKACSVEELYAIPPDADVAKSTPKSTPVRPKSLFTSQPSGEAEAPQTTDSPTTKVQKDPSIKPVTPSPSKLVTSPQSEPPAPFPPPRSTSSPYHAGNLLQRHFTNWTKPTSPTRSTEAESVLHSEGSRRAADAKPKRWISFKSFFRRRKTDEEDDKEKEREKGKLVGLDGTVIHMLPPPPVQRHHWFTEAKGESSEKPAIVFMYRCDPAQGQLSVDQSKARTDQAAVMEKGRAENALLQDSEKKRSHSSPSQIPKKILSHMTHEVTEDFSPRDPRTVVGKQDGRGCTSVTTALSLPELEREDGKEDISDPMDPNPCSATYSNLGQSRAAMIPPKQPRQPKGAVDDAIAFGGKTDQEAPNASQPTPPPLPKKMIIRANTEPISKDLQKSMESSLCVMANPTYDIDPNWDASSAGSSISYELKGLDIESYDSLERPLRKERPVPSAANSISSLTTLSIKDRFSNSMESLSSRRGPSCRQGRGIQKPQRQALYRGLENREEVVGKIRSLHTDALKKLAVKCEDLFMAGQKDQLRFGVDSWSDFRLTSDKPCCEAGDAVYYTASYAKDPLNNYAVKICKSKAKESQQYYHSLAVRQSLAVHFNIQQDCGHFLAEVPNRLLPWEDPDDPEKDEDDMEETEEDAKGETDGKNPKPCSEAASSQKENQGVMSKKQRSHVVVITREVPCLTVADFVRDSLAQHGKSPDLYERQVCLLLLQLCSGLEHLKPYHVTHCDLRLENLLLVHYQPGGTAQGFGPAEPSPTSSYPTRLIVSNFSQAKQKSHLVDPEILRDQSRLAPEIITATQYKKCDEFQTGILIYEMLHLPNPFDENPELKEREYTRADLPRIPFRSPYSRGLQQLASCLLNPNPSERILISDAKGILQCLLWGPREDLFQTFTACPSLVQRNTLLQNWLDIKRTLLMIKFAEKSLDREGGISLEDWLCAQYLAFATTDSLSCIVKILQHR
Chain of MAP kinase-interacting serine/threonine-protein kinase 1 (Homo sapiens) (Q9BUB5 whole entry, looked up): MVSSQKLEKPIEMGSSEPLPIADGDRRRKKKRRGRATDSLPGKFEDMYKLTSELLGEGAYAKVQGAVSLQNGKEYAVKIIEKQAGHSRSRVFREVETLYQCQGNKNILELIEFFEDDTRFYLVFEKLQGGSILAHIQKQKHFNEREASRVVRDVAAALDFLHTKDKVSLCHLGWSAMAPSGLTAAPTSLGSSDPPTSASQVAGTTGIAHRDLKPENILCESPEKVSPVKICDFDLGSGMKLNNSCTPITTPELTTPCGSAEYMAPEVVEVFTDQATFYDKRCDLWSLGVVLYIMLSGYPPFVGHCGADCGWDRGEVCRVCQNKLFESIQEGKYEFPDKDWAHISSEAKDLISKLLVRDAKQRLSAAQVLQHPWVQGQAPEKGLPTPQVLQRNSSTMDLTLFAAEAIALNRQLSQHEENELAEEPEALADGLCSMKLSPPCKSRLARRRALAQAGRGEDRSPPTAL
Chain of Tyrosine-protein kinase ITK/TSK (Homo sapiens) (Q08881 whole entry): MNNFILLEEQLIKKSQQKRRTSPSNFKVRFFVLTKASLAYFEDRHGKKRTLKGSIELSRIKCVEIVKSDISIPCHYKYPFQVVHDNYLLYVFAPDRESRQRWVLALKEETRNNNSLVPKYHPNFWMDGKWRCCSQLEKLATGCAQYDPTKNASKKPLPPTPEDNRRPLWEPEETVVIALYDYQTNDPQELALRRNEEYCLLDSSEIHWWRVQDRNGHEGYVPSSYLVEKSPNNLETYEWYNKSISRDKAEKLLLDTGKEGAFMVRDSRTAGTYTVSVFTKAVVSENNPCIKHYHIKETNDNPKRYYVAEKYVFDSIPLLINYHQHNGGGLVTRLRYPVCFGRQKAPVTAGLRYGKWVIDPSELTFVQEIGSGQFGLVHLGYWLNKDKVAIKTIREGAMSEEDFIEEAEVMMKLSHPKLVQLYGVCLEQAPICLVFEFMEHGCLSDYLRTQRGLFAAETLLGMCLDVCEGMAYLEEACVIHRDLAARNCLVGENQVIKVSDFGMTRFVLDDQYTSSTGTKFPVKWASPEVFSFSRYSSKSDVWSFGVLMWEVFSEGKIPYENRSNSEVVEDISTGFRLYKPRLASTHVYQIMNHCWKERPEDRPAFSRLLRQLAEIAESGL

In the case of C(=C\c1ccccc1)/C[N+]12CN3CN(CN(C3)C1)C2, the Activity [1] is reported as 91.3 to 92.2%, the Activity [2] is reported as 94 to 95.2% and the Activity [3] is reported as 95.1 to 95.4%. The Activity [4] was 91 to 92.4%, the Activity [5] was 96.3 to 96.9% and the Activity (TGF-beta receptor type-2) was 111 to 119%. The Activity [6] was 90.5 to 97%, the inhibition [7] was “Active” and the Activity [8] was 93.5 to 96.7%. It also gave an Activity [9] of 96.3 to 99.7% and an Activity [10] of 107 to 112%.
ClC/C=C/C[N+]12CN3CN(CN(C3)C1)C2 gave an Activity [11] of 92.5 to 96%, an Activity [12] of 93.8 to 96.1% and an Activity [13] of 93.1 to 95.5%. For the same molecule, the Activity [14] was 94.4 to 94.9%, the Activity [15] was 96.6 to 96.8% and the Activity [16] was 93.1 to 94.8%. The Activity [17] was 93.1 to 95.2%, the Activity [18] was 85.1 to 89.7% and the Activity [19] was 93.2 to 96.7%. It also gave an Activity [20] of 94.2 to 94.3%, an Activity [21] of 92.2 to 94.9% and an Activity [22] of 98.8 to 100%.

Reference: ChEMBL document CHEMBL4325871 (Eur J Med Chem, 2019)
